We go through 5 molecules from BindingDB's records for doi:10.1021/jm050184y (National Taiwan University, 2005).

Each structure is given as a SMILES string.

For this assay, the target named is Replicase polyprotein 1ab (Severe acute respiratory syndrome coronavirus, UniProt P0C6X7). Kind of assay: SARS-CoV 3CL Protease Inhibition Assay. The conditions noted are these: pH 7; 25 °C. Here is the method:
The effects of compound on enzyme activity were measured by using a fluorogenic peptide cleavage assay. Enhanced fluorescence caused by cleavage of the substrate peptide was monitored at 538 nm with excitation at 355 nm. The Ki measurements were performed at two fixed inhibitor concentrations and various substrate concentrations.
One may read the IC50 as the midpoint of a concentration-inhibition curve. Higher therefore signals weaker potency. In the case of `O=C(Nc1ccc([N+](=O)[O-])cc1Cl)c1cc(Cl)ccc1O` [5-chloro-N-(2-chloro-4-nitrophenyl)-2-hydroxybenzamide], the IC50 is over 50 µM.

For orientation: Ki means the dissociation constant of the complex between target and ligand, obtained from inhibition or displacement. For the molecule `O=C(C[C@H](O)C(=O)N[C@@H](Cc1ccccc1)C(=O)Nc1ccc([N+](=O)[O-])cc1Cl)N[C@@H](Cc1ccccc1)C(=O)Nc1ccc([N+](=O)[O-])cc1Cl` [(2S)-N,N'-bis[(1S)-1-[(2-chloro-4-nitrophenyl)carbamoyl]-2-phenylethyl]-2-hydroxybutanediamide], the IC50 is 4 µM and the Ki came out at 3.1 µM.

In turn, `Cc1cc(C(=O)N[C@H](C(=O)N[C@@H](Cc2ccccc2)C(=O)N[C@@H](Cc2ccccc2)C(=O)Nc2ccc([N+](=O)[O-])cc2Cl)C(C)C)[n-][o+]1` [(2S)-N-[(1S)-1-{[(1S)-1-[(2-chloro-4-nitrophenyl)carbamoyl]-2-phenylethyl]carbamoyl}-2-phenylethyl]-3-methyl-2-[(5-methyl-1,2-oxazol-3-yl)formamido]butanamide] returned an IC50 of 7 µM and a Ki of 2.9 µM.

In turn, `Cc1cc(C(=O)N[C@H](C(=O)N[C@@H](Cc2ccccc2)C(=O)N[C@H](C(=O)N[C@@H](Cc2ccccc2)C(=O)Nc2ccc([N+](=O)[O-])cc2Cl)C(C)O)C(C)C)no1` (stereo partly drawn) [N-[(5-methylisoxazol-3-yl)carbonyl]-L-valyl-L-phenylalanyl-L-threonyl-N-(2-chloro-4-nitrophenyl)-L-phenylalaninamide] registered an IC50 of 5 µM and a Ki of 1.61 µM.

In turn, `CC(C)C[C@H](NC(=O)[C@@H](NC(=O)OC(C)(C)C)C(C)C)C(=O)N[C@@H](Cc1ccccc1)C(=O)Nc1ccc([N+](=O)[O-])cc1Cl` [tert-butyl N-[(1S)-1-{[(1S)-1-{[(1S)-1-[(2-chloro-4-nitrophenyl)carbamoyl]-2-phenylethyl]carbamoyl}-3-methylbutyl]carbamoyl}-2-methylpropyl]carbamate] returned an IC50 of over 10 µM.
